Tests used:
CXCR4 = CXCR4 transcription by MSC in hanging drop (3D) culture, RTPCR; assay type: cell-based, human; settings: Actin normalization, 4 days
Description: (§1) This effect is more pronounced if the cells are grown directly on plastic in a 2D conformation. In this example, MSCs are cultured in hanging drop cultures in the presence of Ampion™ and then mRNA is evaluated by RTPCR.
(§2) Materials: • Passage 5 Bone marrow derived human mesenchymal stem cells (HUXMA-01001, Cyagen Biosciences, Sunnyvale Calif.) • Mesenchymal Stem Cell Chondrogenic Differentiation medium (GUXMX-90041, Cyagen Biosciences, Sunnyvale Calif.) • TheraPEAK MSCGM chemically defined Stem cell medium (190632 Lonza) • Lonza MSGM (contains serum) • 10 mM Cobalt chloride in saline, sterile filtered (Sigma) • Saline or 0.9% Sodium chloride for injection ZR Flush (Excelsior Medical, Neptune N.J.) • 0.2 μM syringe filters • Hepes buffered saline, Trypsin/EDTA, Trypsin neutralizing solution (Lonza reagent pack) • 182 cm^2 tissue culture flasks • pipettes and sterile tips • Tissue culture hood, humidified CO2 incubator, water or bead bath • 10 cm^2 petri dishes • Qiagen RNeasy plus spin columns (Qiagen 74134) • Qiagen RT^2 qPCR primer pairs for CXCR4, CXCL12, Collagen 2A1, MMP14, MMP13, Aggrecan, IGA4, GAPDH, and Actin B • Roche Sybr green I master mix and Invitrogen Superscript VILO master mix. • Roche 480 lightcycler Cell Expansion: • Passage 5 HUXMA cells were removed from liquid nitrogen storage and expanded in 182 cm^2 flasks containing 40 mls TheraPEAK MSCGM until 80-90% confluence. • Trypsinize cells using standard protocol and proceed to the next step. […] RNA Isolations and Analysis: • After 4 days, remove the plates from the incubator. • Wash spheroids from the lid with 5 mls of the warm PBS in the bottom of each plate and transfer to 15 ml conical centrifuge tubes. • Spin cells at 1000 RPM for 5 minutes and aspirate the solution. • To each tube, add 350 μl Qiagen RNeasy plus lysis buffer (with 2ME). • Transfer solution to Qiashredder columns and spin at 14,000 rpm for 2 minutes. • Proceed with RNeasy plus protocol following manufacturers recommendations. • Elute RNA from columns using 30 μl RNase free water. cDNA Synthesis and Real Time PCR: • First strand synthesis of cDNA from all samples was then performed following the recommended 20 μl total volume protocol using 10 μl isolated RNA. • All cDNA reactions were then diluted with 30 μl nuclease free water. • Real time PCR was then performed using 5 μl diluted cDNA, Roche Syber green master mix, and Qiagen RT^2 qPCR primer pairs (20 μl total volume). • Relative gene expression determined by delta deta Ct method. […]

CXCL12 = CXCL12 transcription by MSC in hanging drop (3D) culture, RTPCR; assay type: cell-based, human; settings: Actin normalization, 4 days
Description: as §1, §2

[1] = tested on: Bone marrow derived human mesenchymal stem cells; assay: Migration (invasion) assay using pretreated stem cells, transwell, calcein AM fluorescence; assay type: cell-based; settings: for mean FU: cells pretreated 72 hours, migration 24 hours; for FU 1: replicate 1; for FU 2: replicate 2; for FU 3: replicate 3
Description: This experiment will be designed to establish if migration of MSC is altered as well.
• Passage 5 Bone marrow derived human mesenchymal stem cells (HUXMA-01001, Cyagen Biosciences, Sunnyvale Calif.) • TheraPEAK MSCGM chemically defined Stem cell medium (190632 Lonza) • Lonza MSGM, Gibco RPMI, Gibco Defined fetal bovine serum. • 10 mM Cobalt chloride in saline, sterile filtered (Sigma) • Saline or 0.9% Sodium chloride for injection ZR Flush (Excelsior Medical, Neptune N.J.) • 0.2 μM syringe filters • Hepes buffered saline, Trypsin/EDTA, Trypsin neutralizing solution (Lonza reagent pack) • 25 and 175 cm^2 tissue culture flasks • pipettes and sterile tips • Tissue culture hood, humidified CO2 incubator, water or bead bath • 8.0 um Thincert tissue culture inserts and 24 well tissue culture plates (Greiner) • 50 μg Calcein AM vials (BD Biosciences) • DMSO (Sigma) Cell Expansion: • Passage 5 HUXMA cells were removed from liquid nitrogen storage and expanded in 175 cm^2 flasks containing 40 mls TheraPEAK MSCGM until 80-90% confluence. • Trypsinize cells using standard protocol and proceed to the next step. Treatment of Cells: • Prepare the following working dilutions in saline for injection from the stocks listed above. • Saline • 800 uM Cobalt Chloride in saline • Neat Ampion • Warm dilutions and Lonza MSCGM to 37° C. in bead bath. • Prepare a cell suspension of HUXMA stem cells in warmed MSCGM medium. • Count and then bring up 250,000 from the cell suspension in 4 mls warmed MSCGM. • Add the diluted cell solution to a 25 cm^2 tissue culture flasks. • Add 1 ml of the appropriate working dilution to the flask. • Incubate at 37° C. and 5% CO2 for 72 hours. Invasion Assay: • Remove the cells from the flask with trypsin and place in 600 μl RPMI+0.5% FBS. • Add 200 μl of the resulting cell suspension to the upper chamber of thinserts (3 inserts per treatment group) resting in a 24 well tissue culture plate. • Add 600 μl RPMI+0.5% FBS to the bottom chamber of the transwell system. • Add 66 μl of one the following solutions to the bottom chamber for each treatment group. • 550 ng/ml SDF (final 50 ng/ml) • 110 ng/ml TGF beta3 (final 10 ng/ml) • Serum (final 10%) • Incubate the plate for 24 hours at 37° C. and 5% CO2. Labeling and Cell Detection. • Remove two calcein AM vials and add 20 μl DMSO. • Transfer the contents of both vials to 12.5 ml RPMI containing 0.2% BSA. • Place 450 μl of the calcein AM solution (8 μM) in each well of a 24 well tissue culture plate. • Transfer the inserts from above to the wells containing calcein AM and incubate 45 minutes at 37° C. and 5% CO2. • After loading the cells with calcein AM, transfer the inserts to 24 well tissue culture plate wells containing 450 μl trypsin EDTA and incubate for another 10 minutes. • Discard inserts then add 450 μl trypsin neutralizing solution to each well. • Transfer 250 μl of the resulting solution to a 96 well black, flat bottom plate well (each reaction in triplicate). • Read fluorescence at 485 nm excitation and 530 nm emission.

[Cl][Co][Cl] [Cobalt, Cobalt chloride]
2-^ΔΔCp vs saline, CXCR4 (CXCR4): 8.369
regulation, CXCR4 (CXCR4): 8.37
ΔΔCp vs saline, CXCR4 (CXCR4): −3.065
ΔCp, CXCR4 (CXCR4; hanging drop culture): 11.19
2-ΔΔCp vs saline, CXCL12 (CXCL12): 0.005
regulation, CXCL12 (CXCL12): −219.79
ΔΔCp vs saline, CXCL12 (CXCL12): 7.78
ΔCp, CXCL12 (CXCL12; hanging drop culture): 14.91
% increase (migration vs saline) ([1]; chemoattractant 10% FBS): 29.1%
mean FU ([1]; chemoattractant 10% FBS): 343.27 FU
FU 1 ([1]; chemoattractant 10% FBS): 346.49 FU
FU 2 ([1]; chemoattractant 10% FBS): 329.28 FU
FU 3 ([1]; chemoattractant 10% FBS): 354.03 FU
% increase (migration vs saline) ([1]; chemoattractant SDF-1): 1.2%
mean FU ([1]; chemoattractant SDF-1 (final 50 ng/ml)): 255.86 FU
FU 1 ([1]; chemoattractant SDF-1): 215.24 FU
FU 2 ([1]; chemoattractant SDF-1): 267.07 FU
FU 3 ([1]; chemoattractant SDF-1): 285.27 FU
% increase (migration vs saline) ([1]; chemoattractant TGF B3): −6.8%
mean FU ([1]; chemoattractant TGF B3 (final 10 ng/ml)): 286.77 FU
FU 1 ([1]; chemoattractant TGF B3): 274.97 FU
FU 2 ([1]; chemoattractant TGF B3): 288.44 FU
FU 3 ([1]; chemoattractant TGF B3): 296.9 FU

From US11026940B2, “Compositions for the mobilization, homing, expansion and differentiation of stem cells and methods of using the same” (Ampio Pharmaceuticals, Inc., priority 2013, dated 2021)
